Results taken from patent publication EP4781986A1, “PHARMACEUTICAL COMPOSITION HAVING IMPROVED PHARMACOKINETIC PROPERTIES” (Sichuan Purity Pharmaceutical Co., Ltd., priority 2023, dated 2025).
Read-outs that look alike come from different tables or passages of the source.

What was measured:
[1] = PK properties in SD rats with or without 0.2% alkyl glycoside (DDM); type: in vivo; conditions: for Tmax: rat, in vivo; for Tmax shortened by: 0.2% DDM vs without DDM; for Tmax(DDM 0.2%)/ Tmax(DDM 0%): 0.2% dodecyl-β-D-maltoside (DDM) vs without DDM
Text: During preparation of a test sample in the Test Example 5, a drug solution group with 0.2% dodecyl-β-D-maltoside (DDM) was also established and prepared in parallel, so as to compare and observe changes of PK properties in rats administered with the drug solution group with 0.2% dodecyl-β-D-maltoside (DDM) and the drug solution group without dodecyl-β-D-maltoside (DDM).

[2] = stability test in liver microsomes (rat); type: in vitro ADME; conditions: Rat liver microsomes
Protocol: (§1) The stability of the compound of the present invention in liver microsomes of rat, monkey and human was determined. Tested compounds of the present invention were the compounds in Examples 6 and 8 , and a control drug was Zavegepant.
(§2) 3.2 An appropriate amount of liver microsome solution was transferred into a 1 mL 96-deep-well plate, added with a tested drug liquid (or a probe substrate solution), and pre-incubated in a thermal mixer at 37°C for 5 minutes. Two parts of mixed solutions were taken out from the system and added with 1×PBS to replace NADPH, and the mixed solutions were taken out at 0 and 60 minutes respectively, and added with methanol (containing an internal standard) to terminate the reaction. In the remaining mixed system, each well was added with NADPH to start the reaction. In the tested substance group, mixed solutions were taken out from the system at 0, 5, 15, 30, 45 and 60 minutes, and in the control group, mixed solutions were taken out from the system at 0, 30 and 60 minutes, and the mixed solutions were added methanol (containing an internal standard) to terminate the reaction. All samples of the terminated reaction were mixed evenly and centrifuged in a centrifuge at 3800 rpm for 15 minutes, and the supernatant was taken for LC-MS/MS analysis.
(§3) A peak area was determined by an extracted ion chromatogram. A slope value k was determined by linear regression of a remaining percentage of a parent drug relative to a natural logarithm of an incubation time curve. According to the slope, in-vitro half-life periods (t1/2) were respectively calculated, and in-vitro intrinsic clearance rates (CLint, represented by µL/min/mg protein) were calculated. Calculation formulas were as follows: t1/2 = ln2/k = 0.693/k; and CLint = 0.693/t1/2 /liver microsome protein concentration [formula]

[3] = PK properties in monkeys with or without alkyl glycoside, intravenous route and nasal spray; type: in vivo, cynomolgus monkey; conditions: for bioavailability / Tmax / AUC / Cmax / half-life / Vd: cynomolgus monkey, plasma; for bioavailability: read-out: Bioavailability F%; for Tmax: read-out: Time to peak Tmax; for AUC: read-out: Area under curve AUC; for Cmax: read-out: Concentration to peak Cmax; for half-life: read-out: Half-life period t1/2 (converted); for Vd: read-out: Volume of distribution steady-state Vss; for Tmax(DDM 0.2%)/ Tmax(DDM 0%) / onset time (Tmax) shortened by: monkeys, intranasal; for Tmax(DDM 0.2%)/ Tmax(DDM 0%): 0.2% DDM vs without DDM; for onset time (Tmax) shortened by: with vs without alkyl glycoside
Protocol: Species: cynomolgus monkey, male, 2-5 kg. Source: Ankai Yibo (Zhanjiang) Biotechnology Co., Ltd., Laboratory Animal Production License No.: SCXK (Yue) 2019-0046. Quantity: 3 cynomolgus monkeys were intravenously administered and 3 cynomolgus monkeys were administered by a nasal spray.
2.1 An appropriate amount of drug was accurately weighed and added with 50 mM succinate buffer (diluted with D5W, pH=5-6), and mixed evenly and dissolved fully in an ultrasonic and vortexed mode to obtain a 0.5 mg/mL drug solution for intravenous administration.
(§4) 2.2 An appropriate amount of drug was accurately weighed and added with a solvent 1: 50 mM succinate buffer (diluted with pure water, pH=5-6), and mixed evenly and dissolved fully in an ultrasonic and vortexed mode to obtain a 20 mg/mL drug solution, which was put into a nasal spraying device for administration by the nasal spray, 100 µL/spray.
as §4, with “2.3” for “2.2”, “2:” for “1:”, “(pH=5-6) containing 0.2% dodecyl-β-D-maltoside,” for “(diluted with pure water, pH=5-6),”
5 minutes, 10 minutes, 15 minutes, 0.5 hour, 1 hour, 2 hours, 4 hours, 6 hours, 8 hours, 10 hours, 12 hours and 24 hours after administration.
Blood was collected through a saphenous vein or a cephalic vein, about 0.6 mL of each sample was collected, EDTA-K2 was used for anticoagulation, the collected blood sample was placed on ice, and plasma was centrifugally separated within 2 hours (at 2000 g and 2-8°C for 10 minutes). The collected plasma samples were stored in a refrigerator at -80°C before analysis, and the remaining plasma samples after analysis were continuously stored in the refrigerator at -80°C for temporary storage.
A concentration of a specified compound in plasma was determined by LC-MS/MS, and main pharmacokinetic parameters were calculated by a Winnolin 8.3 non-compartmental model. When the pharmacokinetic parameters were calculated, BLQ before Cmax (comprising "No peak") was calculated as 0; and BLQ (comprising "No peak") after Cmax was excluded from the calculation.

[4] = stability test in liver microsomes (monkey); type: in vitro ADME; conditions: Monkey liver microsomes
Protocol: as §1, §2, §3

[5] = cynomolgus monkeys, IV@0.5 mg/kg
[6] = male, other: intranasal (nasal spray), 1 mg/kg, cynomolgus monkeys, IN@1 mg/kg (Solvent 1, no DDM)
[7] = male, other: intranasal (nasal spray), 1 mg/kg, cynomolgus monkeys, IN@1 mg/kg (Solvent 2, 0.2% dodecyl-β-D-maltoside)
[8] = male, other: intranasal (nasal spray), cynomolgus monkeys, IN@1 mg/kg (Solvent 2, 0.2% dodecyl-β-D-maltoside)
[9] = male, other: nasal spray (intranasal), cynomolgus monkeys, IN@1 mg/kg (Solvent 1, no DDM)
[10] = male, cynomolgus monkeys, IV@0.5 mg/kg
[11] = 1 mg/kg, cynomolgus monkeys, IN@1 mg/kg (Solvent 1, no DDM)
[12] = 1 mg/kg, cynomolgus monkeys, IN@1 mg/kg (Solvent 2, 0.2% dodecyl-β-D-maltoside)
[13] = iv, 0.5 mg/kg, cynomolgus monkeys, IV@0.5 mg/kg

Cc1cc(C[C@@H](NC(=O)N2CCC(c3cc4c([nH]c3=O)SCC4)CC2)C(=O)N2CCN(C3CCN(C)CC3)CC2)cc2cn[nH]c12 [Example 8, (R)-N-(3-(7-methyl-1H-indazole-5-yl)-1-(4-(1-methylpiperidine-4-yl)piperazine-1-yl)-1-oxopropan-2-yl)-4-(6-oxo-2,3,6,7-tetrahydrothieno[2,3-b]pyridine-5-yl)piperidine-1-formamide]
Tmax ([1]; Sprague-Dawley, inhaled or intranasal, 0.2% DDM): 10 min
Tmax ([1]; Sprague-Dawley, inhaled or intranasal, not added with DDM (0%DDM)): 12.5 min
Tmax shortened by ([1]; intranasal): 20.1%
Tmax(DDM 0.2%)/ Tmax(DDM 0%) ([1]; intranasal): 79.9%
% remaining (60 min) [2]: 90.7%
Apparent clearance CL [3, 5]: 9.27 mL/min/kg
bioavailability [3, 6]: 2.5%
Tmax [3, 6]: 60 min
bioavailability [3, 7]: 26.4%
Tmax [3, 7]: ~10.2 min
AUC [3, 8]: 412 ng·h/mL
Cmax [3, 8]: 401 ng/mL
half-life [3, 8]: 295 min
AUC [3, 9]: 46.1 ng·h/mL
Cmax [3, 9]: 13.4 ng/mL
half-life [3, 9]: 335 min
AUC [3, 10]: 924 ng·h/mL
Cmax [3, 10]: 2280 ng/mL
half-life [3, 10]: 299 min
Vd [3, 10]: 0.738 L/kg
Tmax(DDM 0.2%)/ Tmax(DDM 0%) [3]: 16.7%
onset time (Tmax) shortened by [3]: 83.3%
% remaining (60 min) [4]: 61.6%

Cc1cc(C[C@@H](NC(=O)N2CCC(c3cc4c([nH]c3=O)SCCC4)CC2)C(=O)N2CCN(C3CCN(C)CC3)CC2)cc2cn[nH]c12 [Example 6, (R)-N-(3-(7-methyl-1H-indazole-5-yl)-1-(4-(1-methylpiperidine-4-yl)piperazine-1-yl)-1-oxopropan-2-yl)-4-(7-oxo-3,4,7,8-tetrahydro-2H-thiopyrano[2,3-b]pyridine-6-yl)piperidine-1-formamide]
Tmax shortened by ([1]; intranasal): 83.3%
Tmax(DDM 0.2%)/ Tmax(DDM 0%) ([1]; intranasal): 16.7%
Tmax ([1]; intranasal, 0.2% DDM): 10 min
Tmax ([1]; intranasal, not added with DDM (0%DDM)): 60 min
CLint [2]: 2.4 µL/min/mg
% remaining (60 min) [2]: 91.5%
AUC [3, 11]: 43.2 ng·h/mL
bioavailability [3, 11]: 1.99%
Cmax [3, 11]: 12.7 ng/mL
half-life [3, 11]: 540 min
Tmax [3, 11]: 60 min
AUC [3, 12]: 780 ng·h/mL
bioavailability [3, 12]: 29.8%
Cmax [3, 12]: 663 ng/mL
half-life [3, 12]: 334 min
Tmax [3, 12]: ~10.2 min
AUC [3, 13]: 1140 ng·h/mL
Cmax [3, 13]: 3200 ng/mL
half-life [3, 13]: 299 min
Vd [3, 5]: 0.652 L/kg
Tmax(DDM 0.2%)/ Tmax(DDM 0%) [3]: 16.7%
onset time (Tmax) shortened by [3]: 83.3%
CLint [4]: 0.8 µL/min/mg
% remaining (60 min) [4]: 96.9%
